From patent US12583868B2, “JAK inhibitors and methods for synthesizing and using thereof” (GALDERMA HOLDING SA, priority 2020, dated 2026)
Entries after “also recorded” stand apart in the source; their conditions may differ.

Key:
iv PK mice = conditions: female, mouse, in vivo
Description: Other studies including, but not limited to, CaCO2 permeability, metabolite profiling in human microsomes (Syneos 7007703.SA.186) and in human hepatocytes (Syneos 7007703.SA.185), metabolite M3b structural elucidation (Syneos 7007703.SA.186), mouse iv female (ODS CFH-1798), mouse iv+ABT females (ODS CFH 1799), mouse topical d1,d10 (ODS Study Number: NBK39-32, 12 Sep. 2019, ELN Bioanalysis study: NBK156-79), rat iv (Pharmaron PH-DMPK-GAL-20-002), dog topical d1, d10 (CRL FY19.085) and minipig topical PK dl, d7 (Pharmaron 92404-19-914) are also conducted using the standard protocols known in the art.

SF logD = format: physicochemical
[1] = system: Salmonella typhimurium TA98 and TA100; test: Mini Ames assay (TA98 and TA100); format: cell-based; conditions: TA98 & TA100, with and without metabolic activation (S9)
Description: The Ames test in micro-method (in 6-well plates=mini Ames) follows the general principles of the standard Ames's technique. The Ames test used strains of bacteria Salmonella typhimurium that carry mutations in the genes involved in histidine synthesis. These strains are auxotrophic mutants, they require histidine for growth but cannot produce it. The assay was used to observe the ability of the test item to induce reverse mutations allowing the bacteria to grow in a histidine-free medium. The number of bacteria that revert and acquire the wild-type ability to grow in the absence of histidine can be estimated by counting the colonies that develop upon incubation. The use of different strains allows the identification of different mechanisms of gene mutation (TA98 for detection of frameshift mutations and TA100 for detection of base pair substitutions). […]
A toxicity assessment was performed on complete nutriment agar plate (with histidine) to define the highest concentration to be used in the genotoxicity assay. […] The first concentration analyzed in the well (6-well plate) was 500 μg per plate followed by 7 serial dilutions (2 times factor of dilution). […] The viability of the positive and negative controls was analyzed for each strain, in the presence or absence of metabolic activation system, and were compared with historical data to validate the study. […]

3T3 murine fibroblasts = test: Phototoxicity (Neutral red uptake); format: cell-based; conditions: 3T3 fibroblasts, 7 J/cm2 UVA/UVB
Procedure: Phototoxicity was evaluated in 3T3 murine fibroblasts. Cells were incubated with different concentrations of test compounds. One plate was then exposed to a dose of 7 J/cm2 (UVA/UVB mimicking usual solar exposure) whereas the other plate was kept in the dark. The treatment medium was then replaced with culture medium and after 24 h cell viability was determined by Neutral red uptake. Concentration leading to 50% decrease of viability was calculated in the absence and in the presence of irradiation. The PIF (photo irritation factor) ratio was then calculated: […]).

With `O=S(=O)(N[C@H]1C[C@@H](N2CCOc3cnc4[nH]ccc4c32)C1)C1CN(C2CC2)C1` [Compound E, 1-Cyclopropyl-N-((cis)-3-(2,3-dihydropyrrolo[3′,2′:5,6]pyrido[3,4-b][1,4]oxazin-1(7H)-yl)cyclobutyl)azetidine-3-sulfonamide] the Vd (iv PK mice) was 2.6 L/kg, the clearance (iv PK mice; read-out: iv PK mice: Cl) was 140 mL/min/kg and the half-life (iv PK mice; read-out: iv PK mice: t½) was 26.4 min. For the same compound, the logD (SF logD) was 2.1, the AMES [1] was “not considered to be mutagenic; also recorded: Neg/Neg” and the Phototox (3T3 murine fibroblasts) was “Neg/Neg”.
